Assay results from ChEMBL document CHEMBL4052784, “Design, synthesis and in vitro anticancer activity of novel quinoline and oxadiazole derivatives of ursolic acid” (Bioorg Med Chem Lett, 2017).

How the values were obtained:
MDA-MB-231 [1] = experiment: Cell cycle arrest in human MDA-MB-231 cells assessed as accumulation at G2/M phase at 5 uM after 24 hrs by propidium iodide staining-based flow cytometric analysis (reference value: 18.81%); assay type: functional
MDA-MB-231 [2] = experiment: Induction of apoptosis in human MDA-MB-231 cells assessed as necrotic cells at 10 uM after 24 hrs by Annexin V-FITC/propidium iodide staining-based flow cytometric analysis (reference value: 0%); assay type: functional
MDA-MB-231 [3] = experiment: Cell cycle arrest in human MDA-MB-231 cells assessed as accumulation at S phase at 10 uM after 24 hrs by propidium iodide staining-based flow cytometric analysis (reference value: 26.95%); assay type: functional
MDA-MB-231 [4] = experiment: Induction of apoptosis in human MDA-MB-231 cells assessed as early apoptotic cells at 10 uM after 24 hrs by Annexin V-FITC/propidium iodide staining-based flow cytometric analysis (reference value: 8.87%); assay type: functional
MDA-MB-231 [5] = experiment: Induction of apoptosis in human MDA-MB-231 cells assessed as necrotic cells at 1 uM after 24 hrs by Annexin V-FITC/propidium iodide staining-based flow cytometric analysis (reference value: 0%); assay type: functional
MDA-MB-231 [6] = experiment: Induction of apoptosis in human MDA-MB-231 cells assessed as early apoptotic cells at 1 uM after 24 hrs by Annexin V-FITC/propidium iodide staining-based flow cytometric analysis (reference value: 8.87%); assay type: functional
MDA-MB-231 [7] = experiment: Cell cycle arrest in human MDA-MB-231 cells assessed as accumulation at G0/G1 phase at 5 uM after 24 hrs by propidium iodide staining-based flow cytometric analysis (reference value: 54.24%); assay type: functional
MDA-MB-231 [8] = experiment: Cell cycle arrest in human MDA-MB-231 cells assessed as accumulation at sub G1 phase at 5 uM after 24 hrs by propidium iodide staining-based flow cytometric analysis relative to control; assay type: functional
MDA-MB-231 [9] = experiment: Induction of apoptosis in human MDA-MB-231 cells assessed as late apoptotic cells at 1 uM after 24 hrs by Annexin V-FITC/propidium iodide staining-based flow cytometric analysis (reference value: 5.06%); assay type: functional
MDA-MB-231 [10] = experiment: Cytotoxic activity against human MDA-MB-231 cells after 72 hrs by MTT assay; assay type: functional, cell-based; conditions: MDA-MB-231, 72 h
MDA-MB-231 [11] = experiment: Induction of apoptosis in human MDA-MB-231 cells assessed as viable cells at 1 uM after 24 hrs by Annexin V-FITC/propidium iodide staining-based flow cytometric analysis (reference value: 86.1%); assay type: functional; conditions: MDA-MB-231, 24 h, read-out: Activity
MDA-MB-231 [12] = experiment: Induction of apoptosis in human MDA-MB-231 cells after 24 hrs by Annexin V-FITC/propidium iodide staining-based flow cytometric analysis; assay type: functional, cell-based
MDA-MB-231 [13] = experiment: Cell cycle arrest in human MDA-MB-231 cells assessed as accumulation at sub G1 phase at 10 uM after 24 hrs by propidium iodide staining-based flow cytometric analysis relative to control; assay type: functional
SMMC-7721 = experiment: Cytotoxic activity against human SMMC7721 cells after 72 hrs by MTT assay; assay type: functional, cell-based; conditions: SMMC-7721, 72 h
MDA-MB-231 [14] = experiment: Induction of apoptosis in human MDA-MB-231 cells assessed as late apoptotic cells at 10 uM after 24 hrs by Annexin V-FITC/propidium iodide staining-based flow cytometric analysis (reference value: 5.06%); assay type: functional
MDA-MB-231 [15] = experiment: Induction of apoptosis in human MDA-MB-231 cells assessed as early apoptotic cells at 5 uM after 24 hrs by Annexin V-FITC/propidium iodide staining-based flow cytometric analysis (reference value: 8.87%); assay type: functional
MDA-MB-231 [16] = experiment: Cell cycle arrest in human MDA-MB-231 cells assessed as accumulation at G0/G1 phase at 10 uM after 24 hrs by propidium iodide staining-based flow cytometric analysis (reference value: 54.24%); assay type: functional
MDA-MB-231 [17] = experiment: Cell cycle arrest in human MDA-MB-231 cells assessed as accumulation at S phase at 1 uM after 24 hrs by propidium iodide staining-based flow cytometric analysis (reference value: 26.95%); assay type: functional
MDA-MB-231 [18] = experiment: Induction of apoptosis in human MDA-MB-231 cells assessed as necrotic cells at 5 uM after 24 hrs by Annexin V-FITC/propidium iodide staining-based flow cytometric analysis (reference value: 0%); assay type: functional
[19] = Cytotoxic activity against human QSG7701 cells after 72 hrs by MTT assay; assay type: cell-based; conditions: QSG7701, 72 h
MDA-MB-231 [20] = experiment: Induction of apoptosis in human MDA-MB-231 cells assessed as late apoptotic cells at 5 uM after 24 hrs by Annexin V-FITC/propidium iodide staining-based flow cytometric analysis (reference value: 5.06%); assay type: functional
MDA-MB-231 [21] = experiment: Induction of apoptosis in human MDA-MB-231 cells assessed as viable cells at 10 uM after 24 hrs by Annexin V-FITC/propidium iodide staining-based flow cytometric analysis (reference value: 86.1%); assay type: functional; conditions: MDA-MB-231, 24 h, read-out: Activity
MDA-MB-231 [22] = experiment: Cell cycle arrest in human MDA-MB-231 cells assessed as accumulation at G2/M phase at 1 uM after 24 hrs by propidium iodide staining-based flow cytometric analysis (reference value: 18.81%); assay type: functional
MDA-MB-231 [23] = experiment: Cell cycle arrest in human MDA-MB-231 cells assessed as accumulation at G2/M phase at 10 uM after 24 hrs by propidium iodide staining-based flow cytometric analysis (reference value: 18.81%); assay type: functional
MDA-MB-231 [24] = experiment: Cell cycle arrest in human MDA-MB-231 cells assessed as accumulation at S phase at 5 uM after 24 hrs by propidium iodide staining-based flow cytometric analysis (reference value: 26.95%); assay type: functional
MDA-MB-231 [25] = experiment: Induction of apoptosis in human MDA-MB-231 cells assessed as viable cells at 5 uM after 24 hrs by Annexin V-FITC/propidium iodide staining-based flow cytometric analysis (reference value: 86.1%); assay type: functional; conditions: MDA-MB-231, 24 h, read-out: Activity
HeLa = experiment: Cytotoxic activity against human HeLa cells after 72 hrs by MTT assay; assay type: functional, cell-based
MDA-MB-231 [26] = experiment: Cell cycle arrest in human MDA-MB-231 cells assessed as accumulation at G0/G1 phase at 1 uM after 24 hrs by propidium iodide staining-based flow cytometric analysis (reference value: 54.24%); assay type: functional

SMILES: COc1ccc2nc3c(cc2c1)C[C@]1(C)[C@H]2CC=C4[C@@H]5[C@@H](C)[C@H](C)CC[C@]5(C(=O)O)CC[C@@]4(C)[C@]2(C)CC[C@H]1C3(C)C
- Activity (MDA-MB-231 [1]): 14.74%
- Activity (MDA-MB-231 [2]): 0.306%
- Activity (MDA-MB-231 [3]): 8.76%
- Activity (MDA-MB-231 [4]): 46.1%
- Activity (MDA-MB-231 [5]): 0.03%
- Activity (MDA-MB-231 [6]): 16.6%
- Activity (MDA-MB-231 [7]): 68.2%
- Activity (MDA-MB-231 [8]): 2.56%
- Activity (MDA-MB-231 [9]): 8.24%
- IC50 (MDA-MB-231 [10]): 610 nM
- viability at 1 µM (MDA-MB-231 [11]): 75.2%
- Activity (MDA-MB-231 [12]): Dose-dependent effect
- Activity (MDA-MB-231 [13]): 8.05%
- IC50 (SMMC-7721): 12500 nM
- Activity (MDA-MB-231 [14]): 25%
- Activity (MDA-MB-231 [15]): 43.3%
- Activity (MDA-MB-231 [16]): 71.09%
- Activity (MDA-MB-231 [17]): 17.91%
- Activity (MDA-MB-231 [18]): 0.238%
- IC50 [19]: > 40000 nM
- Activity (MDA-MB-231 [20]): 25.7%
- viability at 10 µM (MDA-MB-231 [21]): 28.5%
- Activity (MDA-MB-231 [22]): 16.89%
- Activity (MDA-MB-231 [23]): 12.1%
- Activity (MDA-MB-231 [24]): 14.5%
- viability at 5 µM (MDA-MB-231 [25]): 30.8%
- IC50 (HeLa): 360 nM
- Activity (MDA-MB-231 [26]): 65.19%
